Source: patent US20210213001A1, “METHOD OF TREATING A SLEEP BREATHING DISORDER” (Monash University, priority 2018, published 2021)

Tests used:
[1] = test system: anaesthetised, hyperventilated Domperidone-treated lamb; test: Periodic breathing induced by transient hyperventilation in the anaesthetised Domperidone-treated lamb (model of elevated loop gain); assay type: in vivo; conditions: for effect on average value of loop gain across the epoch / effect on epoch duration / effect on number of cycles in epochs of periodic breathing following hyperventilation / number of cycles of ventilation and apnea in the epoch of periodic breathing / duration of the epoch of periodic breathing / average value of loop gain across the epoch of periodic breathing: 5 mg/kg i.v.; for effect on average value of loop gain across the epoch / effect on epoch duration / effect on number of cycles in epochs of periodic breathing following hyperventilation: before vs after drug, Retigabine lambs 1-3, Flupirtine lamb 4; for number of cycles of ventilation and apnea in the epoch of periodic breathing / duration of the epoch of periodic breathing / average value of loop gain across the epoch of periodic breathing: single lamb; for number of cycles of ventilation and apnea in the epoch of periodic breathing / duration of the epoch of periodic breathing: about 1 hour after drug; for number of cycles of ventilation and apnea in the epoch of periodic breathing: same lamb before drug: 30 (Retigabine lamb), 24 (Flupirtine lamb); for duration of the epoch of periodic breathing: same lamb before drug: 6 minutes (Retigabine lamb), 320 seconds (Flupirtine lamb); for average value of loop gain across the epoch of periodic breathing: duty ratio method, same lamb before drug: 1.71 (Retigabine lamb), 1.51 (Flupirtine lamb)
From the text: To determine the effects of the KCNQ channel openers Retigabine and Flupirtine on loop gain and periodic breathing in the anaesthetised, hyperventilated Domperidone-treated lamb.
This animal model provides a robust preparation to test the effects of candidate drugs for the treatment of disordered breathing associated with increased peripheral chemosensitivity and elevated loop gain.
Young lambs (Merino/Border-Leicester cross, 14-18 kg) were instrumented surgically and maintained through the experimental protocol according to the method described by Edwards et al. (2008). Briefly, a non-occlusive catheter was placed in the left jugular vein for the induction of anaesthesia using a loading dose of ketamine hydrochloride (5 mg/kg) followed by alpha-chloralose (80 mg/kg as a starting bolus, then as a continuous infusion at 20 mg/kg/hr. Supplemental doses of alpha-chloralose were administered as needed to maintain adequate anaesthesia. A glucose-saline solution was infused through the same catheter to maintain fluid levels (5% glucose in 0.9% saline at 4 ml/kg/hr). A tracheal tube was inserted and connected to a dual intermittent mechanical ventilator (IMV)/high frequency oscillatory ventilator (Humming2; BMO-20H) used in the IMV mode. Use of a 4-way Hans Rudolf valve enabled the lamb to be ventilated artificially or to breathe spontaneously from a circuit through which a flow of gas was maintained at 45 L/min, or from the room air. Measurements of respiratory flow, tidal volume and end-expired gases were made on the tracheal line. Respiratory flow was measured using a Hans Rudolph (3500A) pneumotachograph that was linear up to 35 l/min, in conjunction with a Gaeltec 8T-2 differential pressure transducer connected to a carrier amplifier (Hewlett Packard 8805B) and thence to an HP-8815A electronic integrator to determine tidal volume. Non-occlusive catheters were placed in the right jugular vein and a carotid artery for the intravenous administration of drugs, the sampling of venous and arterial blood gases and the monitoring of blood pressure. Arterial blood pressure was measured using a Micron MP-15 blood pressure transducer connected to a Hewlett-Packard 8805B carrier amplifier. A rectal probe was used to monitor body temperature, which was maintained within the range of 40.0±1.0° C. using an overhead radiant heater. Arterial oxygen saturation was measured continuously using a Nellcor pulse oximeter (Model N-200E) with the probe placed in the trans-mandibular position in such a way that the optical path included the soft tissues of the jaw but excluded the tongue.
Domperidone (0.5 mg/kg in 30 ml 0.1% lactic acid), Flupirtine (as Flupirtine maleate, 5 mg/kg in 30 ml distilled water) and Retigabine (5 mg/kg in 30 ml distilled water) were each administered over a period of 5 minutes via the jugular vein catheter.
Lambs breathed room air (atmospheric) throughout the experimental protocol. Domperidone was administered at the commencement of the experimental protocol. […] Epochs of periodic breathing were induced by switching the tracheal tube to the ventilator circuit and hyperventilating the lamb with air for at least 5 minutes to reduce end tidal CO2 to a level that produced apnea when the ventilator was switched off. […] Typically, an extended epoch of periodic breathing followed the post-hyperventilation apnea. Once the ventilation parameters for achieving a post-hyperventilation apnea as described above were established for a particular animal, the baseline ventilatory response to hyperventilation was determined by performing two standardised hyperventilation procedures 10-15 minutes apart. The test drug (Flupirtine or Retigabine) was then administered and, approximately 1 hour later, another two hyperventilation procedures were performed 10-15 minutes apart.
Minute ventilation was calculated breath-by-breath using the breath duration determined from the respiratory flow trace and the tidal volume signal from the integrator. […]

young lambs = conditions: cited from earlier work

Structure (SMILES)	epochs of periodic breathing on hyperventilation ([1]; Domperidone 0.5 mg/kg alone, 30 minutes or more after administration)	typical duration of epochs of periodic breathing ([1]; Domperidone 0.5 mg/kg alone, before test drug) [min]	duration of blocking effect (young lambs; 0.5 mg/kg dose to a lamb, previous research (Kressin et al. 1986))	effect on loop gain of the respiratory control system (young lambs; young lambs, Edwards et al. (2008))	effect on average value of loop gain across the epoch [1]	effect on epoch duration [1]	effect on number of cycles in epochs of periodic breathing following hyperventilation [1]	number of cycles of ventilation and apnea in the epoch of periodic breathing [1] [cycles]	duration of the epoch of periodic breathing [1] [s]	average value of loop gain across the epoch of periodic breathing [1]
O=c1[nH]c2ccccc2n1CCCN1CCC(n2c(=O)[nH]c3cc(Cl)ccc32)CC1 [Domperidone]	reliably elicited epochs of periodic breathing	2 to 5	at least three hours	increases						
CCOC(=O)Nc1ccc(NCc2ccc(F)cc2)cc1N [Retigabine]					reduced	reduced	significantly reduced	6	115	1.24
CCOC(=O)Nc1ccc(NCc2ccc(F)cc2)nc1N [Flupirtine]					reduced	reduced	significantly reduced	9	130	1.16
